Reference: patent US20070092551A1, “Therapeutic agent” (TAKARA BIO INC., priority 2003, published 2007)
Like-named read-outs stand apart in the source and are kept apart here.

Tested on: mature adipocytes (3T3-L1 cells)
Test: Enhancing action on glucose uptake (2-deoxyglucose) into mature adipocytes
Assay type: cell-based
Conditions: Mus musculus
[1] = 3T3-L1, read-out: Enhancing Action on Glucose Uptake
[2] = 3T3-L1, 10 μM, X=(S−N)/(P−N) of 2-deoxyglucose uptake, P=insulin 1 μg/mL, read-out: Enhancing Action on Glucose Uptake
[3] = 3T3-L1, 30 μM, X=(S−N)/(P−N) of 2-deoxyglucose uptake, P=insulin 1 μg/mL, read-out: Enhancing Action on Glucose Uptake

## COc1ccc(C(=O)/C=C/c2ccc(O)cc2)c(O)c1CC=C(C)C [4-Hydroxyderricin, 4,2′-Dihydroxy-3′-prenyl-4′-methoxychalcone]
[1]
  activation at 3 µM: 60 to 100%
  activation at 10 µM: > 100%
  activation at 30 µM: > 100%

## COc1ccc(C(=O)/C=C/c2ccc(O)cc2)c(O)c1C/C=C(\C)CCC=C(C)C [Xanthoangelol F, 4,2′-Dihydroxy-3′-geranyl-4′-methoxychalcone]
3T3-L1, 3 μM, X=(S−N)/(P−N) of 2-deoxyglucose uptake, P=insulin 1 μg/mL, read-out: Enhancing Action on Glucose Uptake
  activation at 3 µM: 30 to 60%
[2]
  activation at 10 µM: > 100%
[3]
  activation at 30 µM: > 100%

## COc1ccc(C(=O)/C=C/c2ccc(O)cc2)c2c1CC(O)C(C)(C)O2 (stereo not drawn) [Xanthoangelol H]
[3]
  activation at 30 µM: 30 to 60%

## CC(C)=CCC/C(C)=C/Cc1c(O)ccc(C(=O)/C=C/c2ccc(O)cc2)c1O [Xanthoangelol, 4,2′,4′-Trihydroxy-3′-geranylchalcone]
[2]
  activation at 10 µM: 30 to 60%
[3]
  activation at 30 µM: > 100%
